Assay results published in paper PMC5218480 (PLoS ONE, 2017).

System: MV-4-11 cells
Experiment: Gene expression microarray analysis (Affymetrix PrimeView) and GSEA
Assay type: cell-based, human
Design: RFU PODN (11730768_x_at) / Fold change /veh PODN (11730768_x_at) / RFU LINC00158 (11744669_a_at) / Fold change /veh LINC00158 (11744669_a_at) / RFU DUSP10 (11751237_a_at) / Fold change /veh DUSP10 (11751237_a_at) / RFU ID3 (11757404_x_at) / Fold change /veh ID3 (11757404_x_at) / RFU PLEKHG5 (11737974_s_at) / Fold change /veh PLEKHG5 (11737974_s_at) / RFU LRRC4B (11730491_at) / Fold change /veh LRRC4B (11730491_at) / RFU GIMAP4 (11747438_a_at) / Fold change /veh GIMAP4 (11747438_a_at) / RFU KRT8 (11758183_x_at) / Fold change /veh KRT8 (11758183_x_at) / RFU CNN1 (11734310_a_at) / Fold change /veh CNN1 (11734310_a_at) / RFU VPS37D (11726825_at) / Fold change /veh VPS37D (11726825_at) / RFU C10orf10 (11716522_x_at) / Fold change /veh C10orf10 (11716522_x_at) / RFU KIR2DL2 /// KIR2DL4 /// KIR2DL5A /// KIR2DL5B /// KIR2DS1 /// KIR2DS2 /// KIR2DS3 /// KIR2DS4 /// KIR3DL3 /// KIR3DL3 /// KIR3DS1 (11738374_at) / Fold change /veh KIR2DL2 /// KIR2DL4 /// KIR2DL5A /// KIR2DL5B /// KIR2DS1 /// KIR2DS2 /// KIR2DS3 /// KIR2DS4 /// KIR3DL3 /// KIR3DL3 /// KIR3DS1 (11738374_at) / RFU C1QL1 (11718748_at) / Fold change /veh C1QL1 (11718748_at) / RFU TMPRSS4 (11747572_a_at) / Fold change /veh TMPRSS4 (11747572_a_at) / RFU HAMP (11756126_x_at) / Fold change /veh HAMP (11756126_x_at) / RFU RNFT2 (11725882_a_at) / Fold change /veh RNFT2 (11725882_a_at) / RFU NR4A2 (11747474_a_at) / Fold change /veh NR4A2 (11747474_a_at) / RFU ABCC12 (11746883_a_at) / Fold change /veh ABCC12 (11746883_a_at) / RFU TMEM136 (11760407_x_at) / Fold change /veh TMEM136 (11760407_x_at) / RFU CLDN22 /// WWC2 (11732394_at) / Fold change /veh CLDN22 /// WWC2 (11732394_at) / RFU HLA-DPB1 (11760878_x_at) / Fold change /veh HLA-DPB1 (11760878_x_at) / RFU SPINT1 (11716480_a_at) / Fold change /veh SPINT1 (11716480_a_at) / RFU GAP43 (11754022_s_at) / Fold change /veh GAP43 (11754022_s_at) / RFU A4GNT (11735810_at) / Fold change /veh A4GNT (11735810_at) / RFU PRB3 (11715151_x_at) / Fold change /veh PRB3 (11715151_x_at) / RFU TUBB4B (11761932_at) / Fold change /veh TUBB4B (11761932_at) / RFU CAPN14 (11732068_a_at) / Fold change /veh CAPN14 (11732068_a_at) / RFU TMCC2 (11721928_a_at) / Fold change /veh TMCC2 (11721928_a_at) / RFU IRGQ (11745062_a_at) / Fold change /veh IRGQ (11745062_a_at) / RFU FAM174B (11720279_a_at) / Fold change /veh FAM174B (11720279_a_at) / RFU TMPRSS4 (11748680_a_at) / Fold change /veh TMPRSS4 (11748680_a_at) / RFU FAM212B (11763350_a_at) / Fold change /veh FAM212B (11763350_a_at) / RFU PLEKHG5 (11743358_a_at) / Fold change /veh PLEKHG5 (11743358_a_at) / RFU ZSCAN30 (11745921_a_at) / Fold change /veh ZSCAN30 (11745921_a_at) / RFU CMKLR1 (11741424_a_at) / Fold change /veh CMKLR1 (11741424_a_at) / RFU LOC101060620 /// MAPK8IP1 (11723275_at) / Fold change /veh LOC101060620 /// MAPK8IP1 (11723275_at) / RFU SPTSSB (11747773_x_at) / Fold change /veh SPTSSB (11747773_x_at) / RFU PRSS12 (11739890_at) / Fold change /veh PRSS12 (11739890_at) / RFU BIN1 (11741810_x_at) / Fold change /veh BIN1 (11741810_x_at) / RFU WNT11 (11732464_a_at) / Fold change /veh WNT11 (11732464_a_at) / RFU C10orf10 (11716521_a_at) / Fold change /veh C10orf10 (11716521_a_at) / RFU C5orf56 (11738089_at) / Fold change /veh C5orf56 (11738089_at) / RFU CYB561 (11721691_x_at) / Fold change /veh CYB561 (11721691_x_at) / RFU ANKRD19P (11752326_a_at) / Fold change /veh ANKRD19P (11752326_a_at) / RFU OR2T12 /// OR2T33 /// OR2T8 (11738714_s_at) / Fold change /veh OR2T12 /// OR2T33 /// OR2T8 (11738714_s_at) / RFU VCAN (11748164_a_at) / Fold change /veh VCAN (11748164_a_at) / RFU JSRP1 (11732532_at) / Fold change /veh JSRP1 (11732532_at) / RFU KRTAP10-11 (11738290_x_at) / Fold change /veh KRTAP10-11 (11738290_x_at) / RFU MYO3A (11730013_a_at) / Fold change /veh MYO3A (11730013_a_at) / RFU EBF3 (11725865_a_at) / Fold change /veh EBF3 (11725865_a_at) / RFU CAMK2N1 (11719241_x_at) / Fold change /veh CAMK2N1 (11719241_x_at) / RFU C5orf56 (11738088_a_at) / Fold change /veh C5orf56 (11738088_a_at) / RFU OLFML3 (11715873_a_at) / Fold change /veh OLFML3 (11715873_a_at) / RFU LOC100653217 /// NTM (11731650_a_at) / Fold change /veh LOC100653217 /// NTM (11731650_a_at) / RFU MAPK11 (11762145_a_at) / Fold change /veh MAPK11 (11762145_a_at) / RFU FIZ1 (11724087_x_at) / Fold change /veh FIZ1 (11724087_x_at) / RFU OASL (11726364_x_at) / Fold change /veh OASL (11726364_x_at) / RFU SOX15 (11748057_x_at) / Fold change /veh SOX15 (11748057_x_at) / RFU CD79A (11719716_a_at) / Fold change /veh CD79A (11719716_a_at) / RFU HIST1H1D (11736915_at) / Fold change /veh HIST1H1D (11736915_at) / RFU CASKIN2 (11723855_a_at) / Fold change /veh CASKIN2 (11723855_a_at) / RFU LOC730098 (11760151_x_at) / Fold change /veh LOC730098 (11760151_x_at) / RFU OR4N2 (11742367_at) / Fold change /veh OR4N2 (11742367_at) / RFU PRRT2 (11749266_a_at) / Fold change /veh PRRT2 (11749266_a_at) / RFU SNX32 (11753110_a_at) / Fold change /veh SNX32 (11753110_a_at) / RFU CDHR5 (11726645_a_at) / Fold change /veh CDHR5 (11726645_a_at) / RFU RCAN1 (11760418_a_at) / Fold change /veh RCAN1 (11760418_a_at) / RFU FAM167A (11723789_a_at) / Fold change /veh FAM167A (11723789_a_at) / RFU FAM26E (11764081_at) / Fold change /veh FAM26E (11764081_at) / RFU ISYNA1 (11749810_s_at) / Fold change /veh ISYNA1 (11749810_s_at) / RFU ACY1 (11761880_at) / Fold change /veh ACY1 (11761880_at) / RFU 11764098_at / Fold change /veh 11764098_at / RFU SAMD14 (11745864_x_at) / Fold change /veh SAMD14 (11745864_x_at) / RFU NPB (11741838_a_at) / Fold change /veh NPB (11741838_a_at) / RFU TMPRSS6 (11731388_a_at) / Fold change /veh TMPRSS6 (11731388_a_at) / RFU KRTAP10-2 (11738614_at) / Fold change /veh KRTAP10-2 (11738614_at) / RFU ARHGAP8 /// PRR5-ARHGAP8 (11727945_x_at) / Fold change /veh ARHGAP8 /// PRR5-ARHGAP8 (11727945_x_at) / RFU KRTAP5-7 /// NADSYN1 (11734609_at) / Fold change /veh KRTAP5-7 /// NADSYN1 (11734609_at) / RFU RASL12 (11751679_a_at) / Fold change /veh RASL12 (11751679_a_at) / RFU CDKN2B (11736163_a_at) / Fold change /veh CDKN2B (11736163_a_at) / RFU PRF1 (11729649_at) / Fold change /veh PRF1 (11729649_at) / RFU, ZNF638 /// ZNF638-IT1 / Fold change vs veh, ZNF638 /// ZNF638-IT1 / RFU, PANK3 / Fold change vs veh, PANK3 / RFU, SH3YL1 / Fold change vs veh, SH3YL1 / RFU, ZEB2 / Fold change vs veh, ZEB2 / RFU, NRIP1 / Fold change vs veh, NRIP1 / RFU, PTTG1IP / Fold change vs veh, PTTG1IP / RFU, CAPN2 / Fold change vs veh, CAPN2 / RFU, MED14 / Fold change vs veh, MED14 / RFU, SNORA58 / Fold change vs veh, SNORA58 / RFU, C1orf63 / Fold change vs veh, C1orf63 / RFU, LRRFIP1 / Fold change vs veh, LRRFIP1 / RFU, NDUFAF7 / Fold change vs veh, NDUFAF7 / RFU, SLC12A2 / Fold change vs veh, SLC12A2 / RFU, IBTK / Fold change vs veh, IBTK / RFU, ESF1 / Fold change vs veh, ESF1 / Fold change vs veh, TMEM50B / RFU, TAOK1 / Fold change vs veh, TAOK1 / RFU, ACBD3 / Fold change vs veh, ACBD3 / RFU, TMA16 / Fold change vs veh, TMA16 / RFU, RWDD3 / Fold change vs veh, RWDD3 / RFU, BCAT1 / Fold change vs veh, BCAT1 / RFU, EDEM3 / Fold change vs veh, EDEM3 / RFU, TMEM33 / Fold change vs veh, TMEM33 / RFU, WDR75 / Fold change vs veh, WDR75 / RFU, AHCTF1 / Fold change vs veh, AHCTF1 / RFU, TFRC / Fold change vs veh, TFRC / RFU, ZDHHC17 / Fold change vs veh, ZDHHC17 / RFU, NOM1 / Fold change vs veh, NOM1 / RFU, ARL8B / Fold change vs veh, ARL8B / RFU, ZBTB11 / Fold change vs veh, ZBTB11 / RFU, TAMM41 / Fold change vs veh, TAMM41 / RFU, KIAA1704 /// LOC100996395 / Fold change vs veh, KIAA1704 /// LOC100996395 / RFU, ING1 / Fold change vs veh, ING1 / RFU, TRMT61B / Fold change vs veh, TRMT61B / RFU, FUBP3 / Fold change vs veh, FUBP3 / RFU, TP53 / Fold change vs veh, TP53 / RFU, TNKS2 / Fold change vs veh, TNKS2 / RFU, ZFP14 / Fold change vs veh, ZFP14 / RFU, ACTR2 / Fold change vs veh, ACTR2 / RFU, PPP3R1 / Fold change vs veh, PPP3R1 / RFU, PIK3R1 / Fold change vs veh, PIK3R1 / RFU, HNRNPA1 / Fold change vs veh, HNRNPA1 / RFU, RNF170 / Fold change vs veh, RNF170 / RFU, ZNF28 / Fold change vs veh, ZNF28 / RFU, RNGTT / Fold change vs veh, RNGTT / RFU, OGT / Fold change vs veh, OGT / RFU, BRD1 / Fold change vs veh, BRD1 / RFU, MARS / Fold change vs veh, MARS / RFU, ZNF655 / Fold change vs veh, ZNF655 / RFU, FAHD1 / Fold change vs veh, FAHD1 / RFU, BDP1 / Fold change vs veh, BDP1 / RFU, LRRCC1 / Fold change vs veh, LRRCC1 / RFU, ARID1A / Fold change vs veh, ARID1A / RFU, ZNF146 / Fold change vs veh, ZNF146 / RFU, ZNF330 / Fold change vs veh, ZNF330 / RFU, GPN3 / Fold change vs veh, GPN3 / RFU, C9orf123 / Fold change vs veh, C9orf123 / RFU, N4BP2L2 / Fold change vs veh, N4BP2L2 / RFU, ARFIP1 / Fold change vs veh, ARFIP1 / RFU, FAM179B / Fold change vs veh, FAM179B / RFU, BCL10 / Fold change vs veh, BCL10 / RFU, UHRF1BP1L / Fold change vs veh, UHRF1BP1L / RFU, BET1 / Fold change vs veh, BET1 / RFU, CNOT2 / Fold change vs veh, CNOT2 / RFU, ZNF268 / Fold change vs veh, ZNF268 / Fold change vs veh, ZNF507 / RFU, DGCR2 / Fold change vs veh, DGCR2 / RFU, WDSUB1 / Fold change vs veh, WDSUB1 / Fold change vs veh, HSP90B1 /// MIR3652 / RFU, ADSS / Fold change vs veh, ADSS / RFU, GK / Fold change vs veh, GK / RFU, ZNF148 / Fold change vs veh, ZNF148 / RFU, TAF9 / Fold change vs veh, TAF9 / RFU, SLC1A5 / Fold change vs veh, SLC1A5 / RFU, SLMO2 / Fold change vs veh, SLMO2 / RFU, ABCC4 / Fold change vs veh, ABCC4 / RFU, LOC101060439 /// RAP1B / Fold change vs veh, LOC101060439 /// RAP1B / RFU, RFX7 / Fold change vs veh, RFX7 / RFU, GTPBP10 / Fold change vs veh, GTPBP10 / RFU, CNEP1R1 / Fold change vs veh, CNEP1R1 / RFU, BIVM-ERCC5 /// ERCC5 / Fold change vs veh, BIVM-ERCC5 /// ERCC5 / RFU, ILF3 / Fold change vs veh, ILF3 / RFU 11762660_at / Fold change /veh 11762660_at / RFU VCAN (11757783_s_at) / Fold change /veh VCAN (11757783_s_at) / RFU DDX43 (11728927_at) / Fold change /veh DDX43 (11728927_at) / RFU KRT8 (11758188_x_at) / Fold change /veh KRT8 (11758188_x_at) / RFU NKD1 (11759106_at) / Fold change /veh NKD1 (11759106_at) / RFU SRD5A1 (11742802_a_at) / Fold change /veh SRD5A1 (11742802_a_at) / RFU TPSAB1 /// TPSB2 (11721975_s_at) / Fold change /veh TPSAB1 /// TPSB2 (11721975_s_at) / RFU GSTM3 (11746129_a_at) / Fold change /veh GSTM3 (11746129_a_at) / RFU IL23R (11737362_x_at) / Fold change /veh IL23R (11737362_x_at) / RFU TMEM51 (11727254_a_at) / Fold change /veh TMEM51 (11727254_a_at) / RFU PIWIL2 (11732686_x_at) / Fold change /veh PIWIL2 (11732686_x_at) / RFU ORM1 (11744905_x_at) / Fold change /veh ORM1 (11744905_x_at) / RFU CCDC152 (11743942_at) / Fold change /veh CCDC152 (11743942_at) / RFU ECM1 (11717891_a_at) / Fold change /veh ECM1 (11717891_a_at) / RFU IL23R (11748794_a_at) / Fold change /veh IL23R (11748794_a_at) / RFU TNFAIP8L3 (11732012_x_at) / Fold change /veh TNFAIP8L3 (11732012_x_at) / RFU MBOAT4 (11741988_at) / Fold change /veh MBOAT4 (11741988_at) / RFU 11764193_at / Fold change /veh 11764193_at / RFU TMEM53 (11763286_at) / Fold change /veh TMEM53 (11763286_at) / RFU MAGEB2 (11727129_at) / Fold change /veh MAGEB2 (11727129_at) / RFU TMEM200A (11744735_a_at) / Fold change /veh TMEM200A (11744735_a_at) / RFU CCDC152 (11751479_a_at) / Fold change /veh CCDC152 (11751479_a_at) / RFU FAM211A (11726209_a_at) / Fold change /veh FAM211A (11726209_a_at) / RFU RGS16 (11746705_a_at) / Fold change /veh RGS16 (11746705_a_at) / RFU VCAN (11755009_s_at) / Fold change /veh VCAN (11755009_s_at) / RFU RHOB (11743442_s_at) / Fold change /veh RHOB (11743442_s_at) / RFU RGS16 (11720943_a_at) / Fold change /veh RGS16 (11720943_a_at) / RFU RGS16 (11720944_at) / Fold change /veh RGS16 (11720944_at) / RFU, VPS4B / Fold change vs veh, VPS4B / RFU, CREB1 / Fold change vs veh, CREB1 / RFU, DNAJC13 / Fold change vs veh, DNAJC13 / RFU, GNAQ / Fold change vs veh, GNAQ / RFU, CDK5R1 / Fold change vs veh, CDK5R1 / RFU, ZRANB3 / Fold change vs veh, ZRANB3 / RFU, CUL4A / Fold change vs veh, CUL4A / RFU, CCNY / Fold change vs veh, CCNY / RFU, UFL1 / Fold change vs veh, UFL1 / RFU, COG3 / Fold change vs veh, COG3 / RFU, DIAPH2 / Fold change vs veh, DIAPH2 / RFU, SKA2 / Fold change vs veh, SKA2 / RFU, AFF3 / Fold change vs veh, AFF3 / RFU, LMF1 / Fold change vs veh, LMF1 / RFU, IPO11 / Fold change vs veh, IPO11 / RFU, DFFB / Fold change vs veh, DFFB / RFU, FOXP1 / Fold change vs veh, FOXP1 / RFU, CARD8 / Fold change vs veh, CARD8 / RFU, STRN3 / Fold change vs veh, STRN3 / RFU, ADK / Fold change vs veh, ADK / RFU, RASSF2 / Fold change vs veh, RASSF2 / RFU, WIPF1 / Fold change vs veh, WIPF1 / RFU, LARP1B / Fold change vs veh, LARP1B / RFU, RASA1 / Fold change vs veh, RASA1 / RFU, RB1 / Fold change vs veh, RB1 / RFU, PPFIA1 / Fold change vs veh, PPFIA1 / RFU, MAT2A / Fold change vs veh, MAT2A / RFU, CCT5 / Fold change vs veh, CCT5 / RFU, WDR92 / Fold change vs veh, WDR92 / RFU, CUX1 / Fold change vs veh, CUX1 / RFU, TTC7A / Fold change vs veh, TTC7A / RFU, TMEM135 / Fold change vs veh, TMEM135 / RFU, DEPTOR / Fold change vs veh, DEPTOR / RFU, CPM / Fold change vs veh, CPM / RFU, DNAJB6 / Fold change vs veh, DNAJB6 / RFU, CACNA2D3 / Fold change vs veh, CACNA2D3 / RFU, DTX4 / Fold change vs veh, DTX4 / RFU, TFCP2 / Fold change vs veh, TFCP2 / RFU, GMCL1 /// GMCL1P1 / Fold change vs veh, GMCL1 /// GMCL1P1 / RFU, AEBP2 / Fold change vs veh, AEBP2 / RFU, SNHG1 /// SNORD22 /// SNORD25 /// SNORD26 /// SNORD27 /// SNORD28 /// SNORD29 /// SNORD31 / Fold change vs veh, SNHG1 /// SNORD22 /// SNORD25 /// SNORD26 /// SNORD27 /// SNORD28 /// SNORD29 /// SNORD31 / Fold change (Aza/veh), C12orf56 (ProbeSet 11735607_a_at) / Fold change (ACY-1035/veh), C12orf56 (ProbeSet 11735607_a_at) / Fold change (Aza/veh), FGFR1OP (ProbeSet 11751329_s_at) / Fold change (ACY-1035/veh), FGFR1OP (ProbeSet 11751329_s_at) / Fold change (Aza/veh), VPS36 (ProbeSet 11739960_a_at) / Fold change (ACY-1035/veh), VPS36 (ProbeSet 11739960_a_at) / RFU SYPL1 (11715823_x_at) / Fold change /veh SYPL1 (11715823_x_at) / RFU IGFBP7 (11715501_s_at) / Fold change /veh IGFBP7 (11715501_s_at) / RFU REEP3 (11722064_at) / Fold change /veh REEP3 (11722064_at) / RFU IGLL1 (11728026_x_at) / Fold change /veh IGLL1 (11728026_x_at): dose or concentration left out as unconfirmed
Conditions: ProbeSet 11755159_a_at; LIST D

Nc1ccc(-c2cccs2)cc1NC(=O)c1ccc2c(c1)cc(C1CC1)n2CCN1CCOCC1 [ACY-1035]
Fold change vs veh, COG3: 0.96
